Reference: patent US8962558B2, “Methods for reducing GnRH-positive tumor cell proliferation using the GnRH antagonist IN3” (priority 1997, dated 2015)
Square brackets hold non-standard residues; d marks the D form. Peptide text beside a SMILES is read from it. * marks the point of attachment. Tyr(3-I) = N[C@@H](Cc1ccc(O)c(I)c1)C(=O)O; pGlu = O=C1CC[C@@H](C(=O)O)N1; azaGly = NNC(=O)O; tBu = CC(C)(C)*

Key:
[1] = tested on: human glioblastoma cell lines U-87MG or U-373MG, Kaposi sarcoma cell lines KSY-1 or KS-SLK, malignant melanoma cell line MV3 or BLM, medulloblastoma cell line …; test: Proliferation assay on cell cultures (Example 3); format: cell-based; conditions: cell lines of Example 3 treated with the substance
Procedure: A human cell line, such as the well known human glioblastoma cell lines U-87MG or U-373MG (Pinski et al., supra), or a human cell line such as the well known Kaposi sarcoma cell lines KSY-1 or KS-SLK (Parkash et al., 1996, New England Journal of Medicine, 335, 17, 1261-1269), or a human cell line such as the well known human malignant melanoma cell line MV3 or BLM (Goldbrunner, R. H., et al., 1996, Anticancer Research 16 (6B), 3679-87), or a human medulloblastoma cell line such as the well known cell line Daoy or D283 MED (Stockhammer et al., 1995, J. Neurosurgery, 83, 672-681), or human meningeoma cell cultures (Boyle-Wash, E., et al., 1995, Journal of Endocrinology, 145, 155-161), are cultured as previously described for the above-mentioned cell lines and then treated with a concentration of the GnRH agonist Triptorelin®, GnRH antagonist SB-75 (Cetrorelix®) or GnRH antagonist Ramorelix®. […]
In another embodiment, the above-mentioned cell lines are treated as described by Emons, G., et al., 1993, supra, and Irmer, G., 1995, supra, with a concentration of the GnRH peptide antagonist Ac-D-Nal(2)-D-4-ClPhe-D-Pal-Ser-1-MePal-D-IsopropylLys-Leu-IsopropylLys-Pro-D-AlaNH2 (also known as Ant 135-25; the Mepal portion is known as 1-Methyl-3-[3′-pyridyl]-alanine), Teverelix (also known as Antarelix®), Cetrorelix (also known as Cetrotide®), Abarelix (also known as Plenaxis®), D-63153 (also known as Ozarelix®), acyline, azaline B, antide (also known as Iturelix®), Degarelix (FE200486), Ganirelix, Nal-Glu, Orntide (also known as Ornirelix®), Elagolix, or with antagonist peptidomimetic ((2S)-2-[5-[2-(2-azabicyclo[2,2,2]oct-2-yl)-1,1-dimethyl-2-oxoethyl]-2-(3,5-dimethylphenyl)-1H-indol-3-yl]-N-(2-pyridin-4-ylethyl-)propan-1-amine (also known as “IN3”).
In another embodiment, the cell lines used above were each additionally treated with a second GnRH antagonist, namely one of the GnRH antagonists Cetrorelix®, Ant 135-25, IN3, degarelix, Antarelix®, Antide®, and Ramorelix® or alternatively with one of the GnRH antagonists that have been disclosed in U.S. Pat. Nos. 6,939,88, 6,200,957, 5,296,468, 4,851,385, 7,361,633, 7,288,517, WO/2009/106597 or PCT/EP2009/052326, U.S. Pat. Nos. 5,480,969, 5,198,533, or UK Patent GB 2 246782 B, wherein these additional treatment procedures were carried out in a manner similar to those reported in Emons et al., supra, using SB 75 (Cetrorelix®). […]

[2] = tested on: ovarian carcinoma cell lines; conditions: 10^−5 M, day 6; cited from earlier work
[3] = tested on: malignant gliomas U-87MG and U-373MG; test: In vivo study with tumor-implanted nude mice (Example 4); conditions: daily dosages
Procedure: An effect of the treatment of tumor-implanted nude mice (Pinski et al., supra) each with one of the GnRH agonists Buserelin, Triptorelin, Goserelin, and Leuprorelin and each with one of the GnRH antagonists Cetrorelix® (SB-75), Antarelix®, Antide®, and Ramorelix® on the growth of malignant gliomas U-87MG and U-373MG was carried out using daily dosages and controls in nude mice using analysis techniques described for the determination of the efficacy of similar peptides in Pinski et al., supra.

[4] = target: T1, LHRH receptors in rat pituitaries (Rattus norvegicus, UniProt P30969); test: 125I-LHRH-A binding to rat pituitaries (control)
T1 construct: from tissue; host or cells: rat pituitary
T1 sequence (P30969 1-327): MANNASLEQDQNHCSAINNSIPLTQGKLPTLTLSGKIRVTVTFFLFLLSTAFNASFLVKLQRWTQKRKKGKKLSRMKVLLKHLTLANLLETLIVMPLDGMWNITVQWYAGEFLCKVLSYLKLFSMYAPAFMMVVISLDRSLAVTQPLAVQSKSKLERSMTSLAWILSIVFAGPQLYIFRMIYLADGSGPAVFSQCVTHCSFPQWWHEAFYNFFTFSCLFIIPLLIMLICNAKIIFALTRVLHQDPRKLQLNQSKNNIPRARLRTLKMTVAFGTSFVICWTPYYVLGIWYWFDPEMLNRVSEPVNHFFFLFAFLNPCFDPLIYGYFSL
Procedure: (§1) GnRH receptors in melanoma cells have been analyzed also in terms of binding parameters.
(§2) Binding characteristics were evaluated from displacement curves as described in Materials and Methods.

[5] = target: T2, LHRH receptors in Me15392 melanoma cells (Homo sapiens, UniProt P30968); test: 125I-LHRH-A binding to Me15392 cell membranes
T2 construct: endogenous in cells; host or cells: Me15392 human melanoma cells (membranes)
T2 sequence (P30968 1-328): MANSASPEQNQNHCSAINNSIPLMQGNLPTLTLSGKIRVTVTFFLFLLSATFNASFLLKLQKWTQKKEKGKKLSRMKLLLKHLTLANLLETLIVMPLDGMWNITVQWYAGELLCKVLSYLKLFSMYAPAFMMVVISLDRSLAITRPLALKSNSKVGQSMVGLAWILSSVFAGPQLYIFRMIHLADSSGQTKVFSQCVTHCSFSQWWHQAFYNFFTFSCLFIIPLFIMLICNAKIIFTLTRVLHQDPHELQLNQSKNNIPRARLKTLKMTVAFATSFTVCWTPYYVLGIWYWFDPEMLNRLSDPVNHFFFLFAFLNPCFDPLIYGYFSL
Procedure: as §1, §2

[6] = target: T3, LHRH receptors in BLM melanoma cells (Homo sapiens, UniProt P30968); test: 125I-LHRH-A binding to BLM cell membranes
T3 construct: endogenous in cells; host or cells: BLM human melanoma cells (membranes)
T3 sequence (P30968 1-328): T2 sequence (P30968 1-328)
Procedure: as §1, §2

[7] = tested on: BLM human melanoma cells; test: Proliferation of BLM human melanoma cells (Example 20); format: cell-based; conditions: 5×10^−5M
Text: The effects of the GnRH agonist (D-Lys6)-GnRH, Gossypol, the combination of D-Lys6-GnRH and racemic Gossypol, and a conjugate of (D-Lys6)-GnRH, and racemic Gossypol alone on the proliferation of BLM human melanoma cells are depicted in FIG. 20 (A), (B) and (C), respectively. Results are expressed as mean cell number per plate±SE. *, p<0.05 vs. control (C).

[8] = tested on: small cell lung carcinoma cell lines NCI-H1688, NCI-H1417, NCI-H1672, NCI-H1836, DMS-79, DM-553, DMS-114, SW-1271, NCI-H2227, NCI-HI1963, SHP-77 and H-69 AR; test: Proliferation assay on small cell lung carcinoma cell lines (Example 3); format: cell-based, human; conditions: small cell lung carcinoma cell lines treated with the substance
Procedure: In another embodiment, the small cell lung carcinoma cell lines NCI-H1688, NCI-H1417, NCI-H1672, NCI-H1836, DMS-79, DM-553, DMS-114, SW-1271, NCI-H2227, NCI-HI1963 and SHP-77 in addition to the multidrug-resistant small cell lung carcinoma cell line H-69 AR, are cultured as described above and then treated as described by Emons, G., et al., 1993, supra, and Irmer, G., 1995, supra, with various concentrations of the GnRH agonists (D-Lys6)-GnRH, Lutrelin, Histrelin, Nafarelin, Azagly-Nafarelin, Deslorelin, Cystorelin, Decapeptyl, Gonadorelin, GnRH, D-Lys(6)-GnRH II, Lamprey GnRH II, (D-Lys6)-Lamprey GnRH, (D-Lys6)-Lamprey GnRH II and Lamprey GnRH III.
In another embodiment, the small cell lung carcinoma cell lines NCI-H1688, NCI-H1417, NCI-H1672, NCI-H1836, DMS-79, DM-553, DMS-114, SW-1271, NCI-H2227, NCI-HI1963 and SHP-77 in addition to the multidrug-resistant small cell lung carcinoma cell line H-69 AR, are cultured as described above for the above-mentioned cell lines, and then treated as described by Emons, G., et al., 1993, supra, and Irmer, G., 1995, supra, with a concentration of the GnRH antagonist Cetrorelix (also known as Cetrotide®) or with a GnRH peptide antagonist Ac-D-Nal(2)-D-4-ClPhe-D-Pal-Ser-1-MePal-D-IsopropylLys-Leu-IsopropylLys-Pro-D-AlaNH2 wherein Mepal is 1-Methyl-3-[3′-pyridyl]-alanine or Ant 135-25 (also known as Ac-D-Nal(2)-D-4-Cl-Phe-D-Pal-Ser-1-MePal-D-IsopropylLys-Leu-IsopropylLys-Pro-D-AlaNH2), Teverelix (also known as Antarelix®), Cetrorelix (also known as Cetrotide®), Abarelix (also known as Plenaxis®), D-63153 (also known as Ozarelix®), acyline, azaline B, antide (also known as Iturelix®), Degarelix (FE200486), Ganirelix, Nal-Glu, Orntide (also known as Ornirelix®) or with antagonist peptidomimetic ((2S)-2-[5-[2-(2-azabicyclo[2,2,2]oct-2-yl)-1,1-dimethyl-2-oxoethyl]-2-(3,5-dimethylphenyl)-1H-indol-3-yl]-N-(2-pyridin-4-ylethyl-)propan-1-amine (also known as “IN3”).

| ^125I-LHRH-A binding Capacity [4] | ^125I-LHRH-A binding Capacity [5] | ^125I-LHRH-A binding Capacity [6] | Compound | anti-proliferative effects in tumor cells [1] | inhibition of proliferation [2] [%] | growth of malignant gliomas [3] | inhibition of cellular proliferation versus controls [7] [%] | anti-proliferative effects in tumor cells [8] |
| --- | --- | --- | --- | --- | --- | --- | --- | --- |
| – | – | – | CC(C)C[C@H](NC(=O)[C@@H](Cc1c[nH]c2ccccc12)NC(=O)[C@H](Cc1ccc(O)cc1)NC(=O)[C@H](CO)NC(=O)[C@H](Cc1c[nH]c2ccccc12)NC(=O)[C@H](Cc1c[nH]cn1)NC(=O)[C@@H]1CCC(=O)N1)C(=O)N[C@@H](CCCNC(=N)N)C(=O)N1CCC[C@H]1C(=O)NCC(N)=O [Triptorelin®] | Significant anti-proliferative effects | 40 | Significant growth-inhibiting effects | – | – |
| 70-100 fmoles/mg protein | 200-250 fmoles/mg protein | 150-200 fmoles/mg protein | CC(C)C[C@H](NC(=O)[C@@H](COC(C)(C)C)NC(=O)[C@H](Cc1ccc(O)c(I)c1)NC(=O)[C@H](CO)NC(=O)[C@H](Cc1c[nH]c2ccccc12)NC(=O)[C@H](Cc1c[nH]cn1)NC(=O)[C@@H]1CCC(=O)N1)C(=O)N[C@@H](CCCNC(=N)N)C(=O)N1CCC[C@H]1C(=O)NNC(N)=O [^125I-LHRH-A] ([pGlu]HWS[Tyr(3-I)][dS](tBu)LRP[azaGly]-NH2; C-terminus assumed) | – | – | – | – | – |
| – | – | – | (D-Lys6)-GnRH | Significant anti-proliferative effects | – | – | 39 | Significant anti-proliferative effects |
